Measured values reported in patent US20150359794A1, “IMPAIRMENT OF THE LARGE RIBOSOMAL SUBUNIT PROTEIN RPL24 BY DEPLETION OR ACETYLATION” (Buck Institute for Research on Aging, priority 2014, published 2015).

Columns and labels:
Type in all cases: cell-based, human
SKBR3 cells = assay: Polysome profiling and western blot of 60S fractions; conditions: TSA 1 μM, 2 h
Method: Since RPL24 depletion decreased the levels of three cap-dependently translated proteins, the impact of RPL24 knockdown on overall ribosome and polysome formation in these cells was evaluated. Polysome profiling, which utilizes continuous sucrose gradient fractionation to separate free 40S and 60S ribosomal subunits, 80S ribosomes, and polysomes (two or more ribosomes on one mRNA) was used. […] This observed increase in 40S and 60S subunits relative to 80S ribosomes implies a defect in 40S-60S joining induced by the RPL24 knockdown. Since eIF6 bound to the pre-60S subunit prevents joining of the 40S and 60S subunits and occurs adjacent to RPL24 on 60S (FIG. 3c), immunoblotting on all 60S-containing polysome fractions to evaluate the impact of RPL24 knockdown on eIF6 retention was performed. […] Associated with the observed 60S loss of RPL24 was a striking increase in 60S-associated eIF6 (FIG. 3d). To rule out the possibility that the observed 60S retention of eIF6 might be a false-positive or non-specific artifact of lentiviral expressed RPL24 shRNA, a functionally deficient truncation mutant of RPL24 that eliminates the last 17 amino acids was overexpressed. Polysome profiling of 293T cells expressing intact versus truncated RPL24 protein confirmed that truncated RPL24 can induce 60S retention of eIF6 (FIG. 8).
Polysome profiles to separate the 40S, 60S, 80S and polysomes are carried out by layering cell lysates over a continuous 10-50% sucrose gradient and spun at 38,000 rpm for 2 h as previously described. Fractions are collected using a Retriever 500 fraction collector with a UV (UA6) detector (ISCO Teledyne (Lincoln, Nebr.)).
FIG. 3: RPL24 knockdown reduces 80S and polysome assembly while increasing 60S retention of eIF6. […] (a) Western blots using the indicated antibodies were performed on total cell lysates to assess knockdown efficiency. (b) Lysates were applied to a continuous sucrose gradient (10-50%) and ultracentrifugation followed by fractionation was performed to separate ribosomal subunits and polysomes. […]

tubulin = assay: Western blot for tubulin acetylation in SKBR3 cells; conditions: western blot (FIG. 4c,d)
Text: Like TSA, the HDAC6 (class IIb)-selective inhibitors, Tubacin and Compound 101, as well as HDAC6 siRNA, all induce tubulin acetylation as expected as well as ribosomal protein acetylation, including the band that co-migrates with RPL24 (FIG. 4c,d, indicated by arrows). […] Thus, the tubulin acetylating effects of pan-histone deacetylase inhibition, known to be mediated by inhibition or knockdown of HDAC6, correspond to the observed ribosome and RPL24 acetylation responses induced by TSA.
Cells are lysed in RIPA buffer (10 mM Tris-HCL (pH 8.0), 1 mM EDTA, 0.5 mM EGTA, 1% triton X-100, 0.1% sodium deoxycholate, 0.1% SDS, 140 mM NaCl, 20 mM NaF, Complete EDTA-free protease inhibitor tablets (Roche Diagnostics Corp., Basel, Switzerland) and the phosphatase inhibitor cocktail PhosSTOP (Roche)), the latter two as indicated by the manufacturer's protocol. Equal amounts of protein are diluted in 2× sample buffer. Immunoblots on PVDF (Polyvinyldene Fluoride) membranes are blocked with nonfat milk in tris-buffered saline with 0.05% tween-20 (TBST). The following antibodies are incubated with membranes in 5% nonfat milk in TBST: RPL24 (Proteintech, Chicago, Ill.), Cyclin D1, Rack1, RPL4 (Santa Cruz Biotechnology, Santa Cruz, Calif.), NBS1, GAPDH (EMD Millipore Corporation, Chicago, Ill.), Survivin, β-tubulin, acetyl-lysine, eIF6, acetyl-H2B, H2B, (Cell Signaling Technology, Boston, Mass.), acetyl-tubulin, tubulin (Sigma Aldrich (St. Louis, Mo.))
FIG. 4: Ribosomal protein acetylation is induced by histone deacetylase inhibition. (a-c) SKBR3 cells were treated with the indicated drugs for the indicated period of time. (d) SKBR3 cells were transfected with the indicated siRNAs and allowed to incubate for 72 hours. (a, c, d). The indicated western blots were performed in ribopellets, total cytoplasmic lysates, or nuclear extracts. (b) Mass spectrometry was performed on ribopellets as described in materials and methods and in FIG. 6. The fold change in acetylated peptide to total peptide case by TSA treatment is plotted. Only proteins that underwent at least a two-fold induction upon TSA treatment are shown. Error bars represent the standard error of the mean for three biological replicates.

HER2 mRNA = assay: Northern blot of HER2 transcript levels; conditions: SKBR3 cells, TSA 1 μM, 6 h
Method: Previous studies have shown that pan-inhibitors of class I and II histone deacetylases, like TSA, can rapidly destabilize a number of oncogenic transcripts including HER2 in a cycloheximide-dependent manner (FIG. 9). […] Thus, SKBR3 cells were treated with TSA to evaluate polysome protein acetylation and determine if, similar to RPL24 depletion, histone deacetylase inhibition can affect ribosome assembly dynamics. To detect early (2 h) ribosome or polysome acetylation following histone deacetylase inhibition treatment (1 μM TSA), SKBR3 polysomes were isolated using a discontinuous sucrose gradient as previously described. […] Mass spectrometry studies indicate that 15 ribosomal proteins, 11 large subunit proteins (RPL24 included) and 4 small subunit proteins, underwent at least a two-fold induction in acetylation following 2 h or 6 h TSA treatment (1 μM) (FIG. 4b, FIG. 10a-q).
Cells are harvested and RNA is extracted using Trizol (Life Technologies) per manufacturer's protocol. Northern blots are performed as previously described. Briefly, RNA is then electrophoresed into 1% agarose-formaldehyde gels and transferred onto PVDF membranes. Membranes are then hybridized with ^32P-labelled cDNA probes for HER2 or GAPDH, washed, and visualized by autoradiography.
SKBR3 cells were treated with TSA (1 μM, 6 h) and/or cycloheximide (CX, 50 μg/ml, 6 h) or with the respective vehicle controls. […]

SMILES: CC(/C=C/C(=O)NO)=C\[C@@H](C)C(=O)c1ccc(N(C)C)cc1 [TSA, trichostatin-A]
- 60S RPL24 levels (SKBR3 cells): without reducing
- 60S retention of eIF6 (SKBR3 cells): increasing
- 80S and polysome assembly (SKBR3 cells): reduced
- tubulin acetylation (tubulin): induce
- HER2 mRNA decay (HER2 mRNA): TSA-induced HER2 mRNA decay
